Laboratory results as given in patent US20230158025A1 (UNIVERSITY OF UTAH RESEARCH FOUNDATION, priority 2020, published 2023).
Where two headings read alike, the source gives them in different places.

Tests used:
[1] = target: recombinant human GALK1 (Homo sapiens, UniProt P51570); experiment: hGALK1 biochemical activity assay (Kinase-Glo Plus, ATP depletion)
Method in brief: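 Turnover is measured as ATP depletion by Kinase-Glo Plus luminescence after a 1 h room-temperature reaction. Compounds span 11 concentrations, 57.4 μM–0.97 nM, in final 20 mM HEPES pH 8.0 with 5 mM MgCl2. The substrate solution held 35 μM ATP; the added solution held 5 nM human or mouse GALK1 and 100 μM galactose.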

[2] = target: recombinant mouse GALK1 (Mus musculus, UniProt Q9R0N0); experiment: mGALK1 biochemical activity assay (Kinase-Glo Plus, ATP depletion)
Sequence of recombinant mouse GALK1 (Q9R0N0 whole entry): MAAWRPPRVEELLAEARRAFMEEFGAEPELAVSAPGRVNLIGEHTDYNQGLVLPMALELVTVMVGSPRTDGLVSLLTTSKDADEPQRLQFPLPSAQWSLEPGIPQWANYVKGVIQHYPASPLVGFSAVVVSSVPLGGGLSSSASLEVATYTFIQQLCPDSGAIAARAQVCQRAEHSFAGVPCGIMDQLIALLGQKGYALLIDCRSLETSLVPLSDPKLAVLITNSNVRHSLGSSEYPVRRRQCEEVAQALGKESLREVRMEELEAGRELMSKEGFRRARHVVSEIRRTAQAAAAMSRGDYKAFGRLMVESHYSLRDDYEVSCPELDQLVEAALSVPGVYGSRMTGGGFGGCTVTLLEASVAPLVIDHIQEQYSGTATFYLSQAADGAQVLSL
Method in brief: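 Recombinant GALK1 (5 nM) with 100 μM galactose; GALK1 turnover read as ATP depletion by Kinase-Glo Plus luminescence. Reaction ran 1 h at room temperature before detection reagent was added.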

[3] = PAMPA permeability
[4] = aqueous kinetic solubility
[5] = rat microsomal stability (RLM)
[6] = Tables 2-15, 35 μM ATP, 100 μM galactose, 1 h, bracketed figure after some values (e.g. −1.2) is undefined and not reported, read-out: hGALK IC50
[7] = recombinant human GALK1, Kinase-Glo Plus ATP depletion, read-out: hGALK
[8] = Tables 2-15, 35 μM ATP, 100 μM galactose, 1 h, bracketed figure after some values is undefined and not reported, read-out: mGALK IC50
[9] = recombinant mouse GALK1, Kinase-Glo Plus ATP depletion, read-out: mGALK

Sequence of recombinant human GALK1 (P51570 whole entry): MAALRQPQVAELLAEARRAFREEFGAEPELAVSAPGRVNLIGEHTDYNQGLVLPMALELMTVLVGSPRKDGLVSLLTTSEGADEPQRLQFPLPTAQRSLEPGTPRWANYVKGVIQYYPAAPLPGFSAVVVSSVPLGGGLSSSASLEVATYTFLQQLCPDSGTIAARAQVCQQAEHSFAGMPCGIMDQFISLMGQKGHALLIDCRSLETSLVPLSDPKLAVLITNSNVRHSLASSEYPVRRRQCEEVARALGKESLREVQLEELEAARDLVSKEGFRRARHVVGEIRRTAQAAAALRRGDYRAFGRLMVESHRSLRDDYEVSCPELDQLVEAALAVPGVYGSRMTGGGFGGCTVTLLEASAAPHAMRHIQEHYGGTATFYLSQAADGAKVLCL

Row | Compound | IC50 [1, 6] [nM] | IC50 [1, 7] [nM] | IC50 [2, 8] [µM] | IC50 [2, 9] [µM] | Perm. (1 × 10^−6 cm/sec) [3] | Sol. [4] [µg/mL] | Metab. Stabil. (m) ([5]; microsomal half-life) | Perm. (1 × 10^−6 cm/sec) ([3]; PAMPA) | Sol. ([4]; aqueous kinetic solubility) [µg/mL] | Metab. Stabil. (m) ([5]; microsomal stability half-life)
1 | CC1=C(C(=O)NCc2cnn(Cc3ccccc3)c2)C(c2ccc(C)cc2Cl)N=C(Nc2nc3ccc(F)cc3o2)N1 (stereo not shown) [Compound 110, N-((1-benzyl-1H-pyrazol-4-yl)methyl)-4-(2-chloro-4-methylphenyl)-2-((6-fluorobenzo[d]oxazol-2-yl)amino)-6-methyl-1,4-dihydropyrimidine-5-carboxamide] | 1720 | 1720 | 5.44 | 5.44 | 159.0 1 × 10^−6 cm/sec | <1 | 2.74 |  |  | 
2 | CC1=C(C(=O)NCc2c(C)nn(C)c2C)C(c2ccc(C)cc2Cl)N=C(Nc2nc3ccc(F)cc3o2)N1 (stereo not shown) [Compound 111, 4-(2-chloro-4-methylphenyl)-2-((6-fluorobenzo[d]oxazol-2-yl)amino)-6-methyl-N-((1,3,5-trimethyl-1H-pyrazol-4-yl)methyl)-1,4-dihydropyrimidine-5-carboxamide] | 3850 | 3850 | 4.85 | 4.85 | 16.91 1 × 10^−6 cm/sec | <1 | 2.66 |  |  | 
3 | CCn1cc(CNC(=O)C2=C(C)NC(Nc3nc4ccc(F)cc4o3)=NC2c2ccc(C)cc2Cl)cn1 (stereo not shown) [Compound 112, 4-(2-chloro-4-methylphenyl)-N-((1-ethyl-1H-pyrazol-4-yl)methyl)-2-((6-fluorobenzo[d]oxazol-2-yl)amino)-6-methyl-1,4-dihydropyrimidine-5-carboxamide] | 1220 | 1220 | 6.85 | 6.85 | <21.9 1 × 10^−6 cm/sec | <1 | 9.22 |  |  | 
4 | CC1=C(C(=O)NCc2c(C)nn(C)c2C)C(c2ccc(C)cc2Cl)N=C(Nc2nc3cccc(N)c3o2)N1 (stereo not shown) [Compound 113, 2-((7-aminobenzo[d]oxazol-2-yl)amino)-4-(2-chloro-4-methylphenyl)-6-methyl-N-((1,3,5-trimethyl-1H-pyrazol-4-yl)methyl)-1,4-dihydropyrimidine-5-carboxamide] | 1220 | 1220 | 6.85 | 6.85 | 127.92 1 × 10^−6 cm/sec | 12.0 | 2.369 |  |  | 
5 | CC1=C(C(=O)NCc2cnn(C)c2)[C@@H](c2ccc(C)cc2Cl)N=C(Nc2nc3cccc(N)c3o2)N1 [Compound 116, (S)-2-((7-aminobenzo[d]oxazol-2-yl)amino)-4-(2-chloro-4-methylphenyl)-6-methyl-N-((1-methyl-1H-pyrazol-4-yl)methyl)-1,4-dihydropyrimidine-5-carboxamide] |  | 12200 |  | 30.6 | 326.9 1 × 10^−6 cm/sec | 21.9 | 7.868 |  |  | 
6 | CC1=C(C(=O)NCc2cnn(C)c2)C(c2ccc(Cl)cc2Cl)N=C(Nc2nc3cccc(N)c3o2)N1 (stereo not shown) [Compound 123, 2-((7-aminobenzo[d]oxazol-2-yl)amino)-4-(2,4-dichlorophenyl)-N-((1-methyl-1H-pyrazol-4-yl)methyl)-6-methyl-1,4-dihydropyrimidine-5-carboxamide] |  | 1090 |  | 6.85 |  |  |  | 142.4 1 × 10^−6 cm/sec | 15.63 | 17.76
7 | CC1=C(C(=O)NCc2cnn(C)c2)C(c2ccc(C)cc2Cl)N=C(Nc2nc3ccc(F)c(C(=O)O)c3o2)N1 (stereo not shown) [Compound 128, 2-((4-(2-chloro-4-methylphenyl)-6-methyl-5-(((1-methyl-1H-pyrazol-4-yl)methyl)carbamoyl)-1,4-dihydropyrimidin-2-yl)amino)-6-fluorobenzo[d]oxazole-7-carboxylic acid] |  | 17200 |  | 21.7 |  |  |  | <1 1 × 10^−6 cm/sec | 26.3 | >30

Stronger by IC50 [1, 7], values ahead:

Row | IC50 [1, 6] [nM] | IC50 [1, 7] [nM] | IC50 [2, 8] [µM] | IC50 [2, 9] [µM] | Perm. (1 × 10^−6 cm/sec) [3] | Sol. [4] [µg/mL] | Metab. Stabil. (m) ([5]; microsomal half-life) | Perm. (1 × 10^−6 cm/sec) ([3]; PAMPA) | Sol. ([4]; aqueous kinetic solubility) [µg/mL] | Metab. Stabil. (m) ([5]; microsomal stability half-life) | Compound
8 |  | 680 |  | 6.85 |  |  |  | 17.14 1 × 10^−6 cm/sec | 49.6 | 29.59 | CC1=C(C(=O)NCc2cnn(C)c2)C(c2ccc(F)cc2Cl)N=C(Nc2nc3cccc(N)c3o2)N1 (stereo not shown) [Compound 119, 2-((7-aminobenzo[d]oxazol-2-yl)amino)-4-(2-chloro-4-fluorophenyl)-N-((1-methyl-1H-pyrazol-4-yl)methyl)-6-methyl-1,4-dihydropyrimidine-5-carboxamide]
9 | 490 | 490 | 3.43 | 3.43 |  |  |  | 460.2 1 × 10^−6 cm/sec | <1 | 2.993 | CC1=C(C(=O)NCc2cnn(C)c2C)C(c2ccc(C)cc2Cl)N=C(Nc2nc3ccc(F)cc3o2)N1 (stereo not shown) [Compound 124]
10 |  | 480 |  | 8.63 |  |  |  | 289.5 1 × 10^−6 cm/sec | 4.6 | 14.14 | CCn1cc(CNC(=O)C2=C(C)NC(Nc3nc4cccc(N)c4o3)=NC2c2ccc(Cl)cc2Cl)cn1 (stereo not shown) [Compound 120, 2-((7-aminobenzo[d]oxazol-2-yl)amino)-4-(2,4-dichlorophenyl)-N-((1-ethyl-1H-pyrazol-4-yl)methyl)-6-methyl-1,4-dihydropyrimidine-5-carboxamide]
11 | 390 | 390 | 5.44 | 5.44 | 103.8 1 × 10^−6 cm/sec | <1 | 6.732 |  |  |  | CC1=C(C(=O)NCc2cnn(Cc3ccccc3)c2)C(c2ccc(C)cc2Cl)N=C(Nc2nc3cccc(N)c3o2)N1 (stereo not shown) [Compound 114, 2-((7-aminobenzo[d]oxazol-2-yl)amino)-N-((1-benzyl-1H-pyrazol-4-yl)methyl)-4-(2-chloro-4-methylphenyl)-6-methyl-1,4-dihydropyrimidine-5-carboxamide]
12 |  | 220 |  | 1.93 |  |  |  | 166.7 1 × 10^−6 cm/sec | 5.9 | >30 | CC1=C(C(=O)NCc2cnn(C)c2)C(c2ccc(Cl)cc2Cl)N=C(Nc2nc3ccc(F)c(N)c3o2)N1 (stereo not shown) [Compound 127, 2-((7-amino-6-fluorobenzo[d]oxazol-2-yl)amino)-4-(2,4-dichlorophenyl)-6-methyl-N-((1-methyl-1H-pyrazol-4-yl)methyl)-1,4-dihydropyrimidine-5-carboxamide]
13 |  | 170 | 3.06 |  | 360.4 1 × 10^−6 cm/sec | 2.43 | 11.3 |  |  |  | CCn1cc(CNC(=O)C2=C(C)NC(Nc3nc4cccc(N)c4o3)=NC2c2ccc(C)cc2Cl)cn1 (stereo not shown) [Compound 117, 2-((7-aminobenzo[d]oxazol-2-yl)amino)-4-(2-chloro-4-methylphenyl)-6-methyl-N-((1-ethyl-1H-pyrazol-4-yl)methyl)-1,4-dihydropyrimidine-5-carboxamide]
14 |  | 130 |  | 1.58 | 416.8 1 × 10^−6 cm/sec | 17.14 | 18.91 |  |  |  | CC1=C(C(=O)NCc2cnn(C)c2)[C@H](c2ccc(C)cc2Cl)N=C(Nc2nc3cccc(N)c3o2)N1 [Compound 115, (R)-2-((7-aminobenzo[d]oxazol-2-yl)amino)-4-(2-chloro-4-methylphenyl)-6-methyl-N-((1-methyl-1H-pyrazol-4-yl)methyl)-1,4-dihydropyrimidine-5-carboxamide]
